Data on 2 compounds can be found in US20050244592A1, “Recording paper and image recording method” (FUJI XEROX CO., LTD., priority 2004, published 2005).

This data set in a line: Solubility of the carboxylic acid in pure water. The conditions noted are these: maximum dissolution based on 100 g of pure water at 20° C.

Compound `O=C(O)c1nc(C(=O)O)c(C(=O)O)c(C(=O)O)c1C(=O)O` [Pyridine pentacarboxylic acid] gave a Solubility of 10 g/100 g. The result for Furan carboxylic acid reads 7 g/100 g.
